Usually IC50 stands for the concentration that inhibits the measured activity by half. Low values mean greater potency, high ones weaker potency.

Molecules are shown by their SMILES. Some results are limits rather than exact numbers.

Test [1] has as its target T1, Epidermal growth factor receptor [1-763,'FHEA',764-1210] (UniProt P00533).
T1 construct: 1-763,'FHEA',764-1210
Briefly: Inhibitory Activity of Compounds Against EGFR Mutant Enzyme. Here is the method: (§1) The activity of the compounds of the present invention against EGFR mutant enzymes was measured using the HTRF system purchased from Cisbio as follows. For an EGFR mutant enzyme, the EGFR del19 enzyme was a recombinant protein purchased from Carna Biosciences, and the EGFR A763_Y764insFHEA enzyme was a recombinant protein purchased from SignalChem, respectively.The composition of the assay buffer used for activity measurement was 50 mM tris-HCl pH 7.5, 100 mM NaCl, 7.5 mM MgCl2, 3 mM KCl, 0.01% tween 20, 0.1% BSA, and 1 mM DTT. An enzymatic reaction was performed using a peptide substrate labeled with ATP at a concentration of […] and biotin at a concentration of […]. The analysis of the inhibitory effect of the compounds on EGFR activity was performed according to the following method.Component 1:4 μL of EGFR mutant enzymeComponent 2:2 μL of compound solutionComponent 3:4 μL of ATP and a biotin labeled peptideThe enzyme reaction begins by first mixing component 1 and component 2 and then adding component 3 thereto. After the reaction at 37° C. for 2 hours, […] of a measurement solution consisting of streptavidin-XL665 and a europium-labeled anti-phosphotyrosine antibody purchased from Cisbio was added to the enzyme reaction solution and reacted at room temperature for 1 hour. Finally, the ratio of fluorescence values at 615 nm and 665 nm was measured using Perkin-Elmer's Envision instrument to calculate enzyme activity and confirm the inhibitory ability of the compounds.

In test [2] the target is T2, Epidermal growth factor receptor [DEL746-750] (Homo sapiens, UniProt P00533).
T2 construct: gene EGFR
T2 sequence (P00533 with tags, fused parts or gaps DEL746-750 limits assumed, stated change not applied): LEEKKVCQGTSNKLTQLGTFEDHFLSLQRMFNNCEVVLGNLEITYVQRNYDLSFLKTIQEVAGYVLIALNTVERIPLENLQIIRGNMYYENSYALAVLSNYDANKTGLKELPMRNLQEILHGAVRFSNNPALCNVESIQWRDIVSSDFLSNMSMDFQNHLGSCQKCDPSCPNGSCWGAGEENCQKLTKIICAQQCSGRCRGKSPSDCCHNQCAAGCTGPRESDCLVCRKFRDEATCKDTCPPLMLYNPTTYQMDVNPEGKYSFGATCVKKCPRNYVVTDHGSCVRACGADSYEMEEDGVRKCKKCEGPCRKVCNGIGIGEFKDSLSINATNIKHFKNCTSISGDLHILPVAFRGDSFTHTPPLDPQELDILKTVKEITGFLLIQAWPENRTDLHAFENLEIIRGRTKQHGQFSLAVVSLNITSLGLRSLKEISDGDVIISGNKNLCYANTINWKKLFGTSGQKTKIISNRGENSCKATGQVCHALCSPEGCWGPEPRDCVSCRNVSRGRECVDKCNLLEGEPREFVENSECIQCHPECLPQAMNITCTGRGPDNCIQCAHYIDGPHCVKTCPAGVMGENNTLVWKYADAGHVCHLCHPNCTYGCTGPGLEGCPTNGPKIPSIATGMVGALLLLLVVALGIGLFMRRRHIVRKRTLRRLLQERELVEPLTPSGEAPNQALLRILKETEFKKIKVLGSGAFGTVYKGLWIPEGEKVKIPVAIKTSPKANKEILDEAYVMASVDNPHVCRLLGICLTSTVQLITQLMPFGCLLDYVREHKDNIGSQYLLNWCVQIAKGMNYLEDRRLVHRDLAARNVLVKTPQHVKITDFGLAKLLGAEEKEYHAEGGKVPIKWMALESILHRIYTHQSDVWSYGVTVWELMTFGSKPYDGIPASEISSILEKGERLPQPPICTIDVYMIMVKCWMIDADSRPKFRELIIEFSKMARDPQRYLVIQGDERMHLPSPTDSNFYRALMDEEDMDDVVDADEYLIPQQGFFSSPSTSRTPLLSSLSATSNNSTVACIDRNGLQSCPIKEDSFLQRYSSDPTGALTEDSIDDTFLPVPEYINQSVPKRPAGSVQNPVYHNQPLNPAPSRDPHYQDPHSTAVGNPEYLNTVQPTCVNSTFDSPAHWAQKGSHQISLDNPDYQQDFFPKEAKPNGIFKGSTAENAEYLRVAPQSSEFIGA
The description is as above. Here is the method: as §1

Test [3] has as its target T3, Receptor tyrosine-protein kinase erbB-2 [1-775,'YVMA',776-1255] (Homo sapiens, UniProt P04626).
T3 construct: 1-775,'YVMA',776-1255
In words: Inhibitory Activity of Compounds Against HER2 A775_G776insYVMA mutant enzyme. The protocol:
The activity of the compounds of the present invention against HER mutant enzymes was measured using the HTRF system purchased by Cisbio as follows. As a HER2 mutant enzyme, the HER2 A775_G776insYVMA mutant enzyme was used by purchasing a recombinant protein provided by Carna Biosciences.The composition of the assay buffer used for activity measurement was 50 mM tris-HCl pH 7.5, 100 mM NaCl, 7.5 mM MgCl2, 3 mM KCl, 0.01% tween 20, 0.1% BSA, and 1 mM DTT. In addition thereto, the enzymatic reaction was performed using a peptide substrate labeled with ATP at a concentration of […] and biotin at a concentration of […]. The analysis of the activity inhibitory effect of the compounds on HER2 A775_G776insYVMA mutation was performed according to the following method.Component 1:4 μL of HER2 A775_G776insYVMA mutant enzymeComponent 2:2 μL of compound solutionComponent 3:4 μL of ATP and a biotin labeled peptideThe enzyme reaction begins by first mixing component 1 and component 2 and then adding component 3 thereto. After the reaction at 37° C. for 2 hours, […] of a measurement solution consisting of streptavidin-XL665 and a europium-labeled anti-phosphotyrosine antibody purchased from Cisbio was added to the enzyme reaction solution and reacted at room temperature for 1 hour. Finally, the ratio of fluorescence values at 615 nm and 665 nm was measured using Perkin-Elmer's Envision equipment to calculate enzyme activity and confirm the inhibitory ability of the compounds.

Test [4] deals with T4, Epidermal growth factor receptor [DEL746-750] (Homo sapiens, UniProt P00533, DEL746-750).
T4 construct: gene EGFR
T4 sequence (P00533 with tags, fused parts or gaps DEL746-750 limits assumed): as the sequence (P00533 with tags, fused parts or gaps DEL746-750 limits assumed, stated change not applied) above
In words: Inhibitory Activity of Compounds Against EGFR Mutant Enzyme. The protocol:
as §1

T3 sequence (P04626 with tags, fused parts or gaps INS775YVMA limits assumed): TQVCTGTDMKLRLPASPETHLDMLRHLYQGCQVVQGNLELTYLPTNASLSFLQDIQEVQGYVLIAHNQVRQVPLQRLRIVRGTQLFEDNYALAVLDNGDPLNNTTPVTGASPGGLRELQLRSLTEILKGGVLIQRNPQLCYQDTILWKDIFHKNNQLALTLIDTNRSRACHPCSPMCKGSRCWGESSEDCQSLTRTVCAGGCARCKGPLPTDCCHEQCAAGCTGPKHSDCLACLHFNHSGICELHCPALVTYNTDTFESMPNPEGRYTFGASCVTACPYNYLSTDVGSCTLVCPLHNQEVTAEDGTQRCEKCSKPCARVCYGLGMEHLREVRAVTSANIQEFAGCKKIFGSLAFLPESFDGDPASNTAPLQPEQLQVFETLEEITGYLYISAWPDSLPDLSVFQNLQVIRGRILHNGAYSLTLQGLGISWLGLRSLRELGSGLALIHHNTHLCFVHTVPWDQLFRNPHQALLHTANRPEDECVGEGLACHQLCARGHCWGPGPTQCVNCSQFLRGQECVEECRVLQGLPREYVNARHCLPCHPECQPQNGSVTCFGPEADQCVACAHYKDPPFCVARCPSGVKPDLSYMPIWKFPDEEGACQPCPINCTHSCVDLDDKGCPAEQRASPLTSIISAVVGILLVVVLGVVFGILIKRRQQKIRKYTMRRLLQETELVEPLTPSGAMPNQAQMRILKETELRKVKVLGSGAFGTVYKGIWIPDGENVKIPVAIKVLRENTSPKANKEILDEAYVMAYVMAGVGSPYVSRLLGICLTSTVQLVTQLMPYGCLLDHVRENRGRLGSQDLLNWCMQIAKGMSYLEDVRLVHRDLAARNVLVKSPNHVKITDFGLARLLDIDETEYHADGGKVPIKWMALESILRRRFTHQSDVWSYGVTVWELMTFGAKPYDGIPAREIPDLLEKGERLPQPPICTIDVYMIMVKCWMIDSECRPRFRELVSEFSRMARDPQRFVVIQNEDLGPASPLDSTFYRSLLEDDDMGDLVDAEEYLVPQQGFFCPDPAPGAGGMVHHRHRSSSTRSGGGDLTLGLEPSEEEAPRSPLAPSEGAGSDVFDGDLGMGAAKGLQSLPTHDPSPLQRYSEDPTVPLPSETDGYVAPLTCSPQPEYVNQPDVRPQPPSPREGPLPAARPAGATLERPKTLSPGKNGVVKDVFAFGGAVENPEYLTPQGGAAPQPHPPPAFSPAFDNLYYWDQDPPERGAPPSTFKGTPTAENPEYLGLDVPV
T1 sequence (P00533 with tags, fused parts or gaps INS763FHEA limits assumed): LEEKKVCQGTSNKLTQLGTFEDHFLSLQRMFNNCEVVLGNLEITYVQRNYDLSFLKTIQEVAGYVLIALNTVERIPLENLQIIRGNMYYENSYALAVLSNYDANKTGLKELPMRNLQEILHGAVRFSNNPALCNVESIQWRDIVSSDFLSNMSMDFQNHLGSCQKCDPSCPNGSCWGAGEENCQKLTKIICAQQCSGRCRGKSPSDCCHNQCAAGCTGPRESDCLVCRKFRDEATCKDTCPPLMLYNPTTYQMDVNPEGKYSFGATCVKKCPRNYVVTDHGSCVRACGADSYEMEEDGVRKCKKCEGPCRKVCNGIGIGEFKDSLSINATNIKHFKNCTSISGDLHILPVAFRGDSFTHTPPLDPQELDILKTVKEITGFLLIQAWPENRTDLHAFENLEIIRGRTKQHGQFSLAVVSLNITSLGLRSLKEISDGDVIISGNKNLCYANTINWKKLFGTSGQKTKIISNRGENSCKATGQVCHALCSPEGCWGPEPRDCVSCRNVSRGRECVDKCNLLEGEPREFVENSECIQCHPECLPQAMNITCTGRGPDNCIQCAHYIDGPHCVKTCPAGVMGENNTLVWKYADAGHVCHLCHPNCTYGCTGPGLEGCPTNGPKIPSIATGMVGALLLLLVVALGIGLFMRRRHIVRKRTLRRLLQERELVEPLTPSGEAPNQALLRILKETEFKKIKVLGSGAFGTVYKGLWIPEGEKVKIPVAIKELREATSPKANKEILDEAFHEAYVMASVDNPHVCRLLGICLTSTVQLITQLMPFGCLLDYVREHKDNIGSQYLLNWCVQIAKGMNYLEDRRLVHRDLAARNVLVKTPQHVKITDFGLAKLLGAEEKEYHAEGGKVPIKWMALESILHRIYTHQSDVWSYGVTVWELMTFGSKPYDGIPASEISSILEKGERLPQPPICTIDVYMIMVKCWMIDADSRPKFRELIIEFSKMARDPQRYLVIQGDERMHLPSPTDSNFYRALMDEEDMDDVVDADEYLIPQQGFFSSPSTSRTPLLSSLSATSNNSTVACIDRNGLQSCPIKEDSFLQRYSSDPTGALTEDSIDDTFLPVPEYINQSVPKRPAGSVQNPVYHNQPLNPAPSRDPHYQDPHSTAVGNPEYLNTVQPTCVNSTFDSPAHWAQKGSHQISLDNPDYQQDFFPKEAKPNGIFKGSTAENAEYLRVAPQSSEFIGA

With `CCS(=O)(=O)Nc1ccccc1Nc1nc(Cl)ncc1C` [US20240343694, Example 27], the values for the IC50 in test [1], in test [2] and in test [3] were 9 nM, 3 nM and 30 nM, respectively.

As to `CC(=O)N(C)c1c(N)ccc(C)c1C` [US20240343694, Example 85], the IC50 in test [1] stood at 43 nM; in test [2], 18 nM; in test [3], 871 nM.

As for `CCN(c1ccccc1Nc1nc(Cl)ncc1Cl)S(C)(=O)=O` [US20240343694, Example 41], the IC50 in test [1] was 1 nM; in test [2], below 1 nM; in test [3] it was 9 nM.

Take `C=C(F)C(=O)Nc1cc(N)c(OC)cc1N(C)CCN(C)C` [US20240343694, Example 64]: the values for the concentration for half-maximal inhibition (IC50) in test [1], in test [2] and in test [3] were below 1 nM, below 1 nM and 3 nM, respectively.

Consider `CC(C)OC(=O)c1cnc(Cl)nc1Nc1cccc2c1N(S(C)(=O)=O)CC2` [US20240343694, Example 69], for which the IC50 in test [1] is below 1 nM; in test [4] it was below 1 nM; in test [3], 6 nM.

`C=CC(=O)Nc1cc(N)c(OC)cc1OCCN1CCCCC1` [US20240343694, Example 81]: the IC50 in test [1], in test [2] and in test [3] was below 1 nM in each case.

In the case of `CCS(=O)(=O)N(C)c1ccccc1Nc1nc(Cl)ncc1Cl` [US20240343694, Example 40], the values for the IC50 in test [1], in test [2] and in test [3] were 1 nM, below 1 nM and 4 nM, respectively.

On to `CC(C)N(c1ccccc1Nc1nc(Cl)ncc1Cl)S(C)(=O)=O` [US20240343694, Example 42], for which the values for the IC50 in test [1], in test [2] and in test [3] were below 1 nM, below 1 nM and 6 nM, respectively.

For `C=CC(=O)Nc1cc(N)c(OC)cc1N(C)CCN1CCCC1` [US20240343694, Example 29], the half-maximal inhibitory concentration (IC50) in test [1] was below 1 nM; in test [2], below 1 nM; in test [3], 5 nM.

`CCc1cccc(Nc2nc(Cl)ncc2Cl)c1N(C)S(C)(=O)=O` [US20240343694, Example 51]: the figures for the half-maximal inhibitory concentration (IC50) in test [1], in test [2] and in test [3] were below 1 nM, below 1 nM and 30 nM, respectively.

Turning to `C=CC(=O)Nc1cc(N)c(OC)cc1OCCN1CCOCC1` [US20240343694, Example 80], the IC50 is below 1 nM in test [1], below 1 nM in test [2] and 1 nM in test [3].

Consider `CCN(c1c(C)cccc1Nc1nc(Cl)ncc1Cl)S(C)(=O)=O` [US20240343694, Example 49], for which the IC50 in test [1] turned out to be 10 nM; in test [2] it was 0.1 nM; in test [3], 60 nM.

As to `C=CC(=O)Nc1cc(Nc2ncc(Cl)c(Nc3ccccc3NS(C)(=O)=O)n2)c(OC)cc1N(C)CCN(C(=O)OCc1ccccc1)C(C)C` [US20240343694, Example 33], the IC50 is below 1 nM in test [1], below 1 nM in test [2] and 7 nM in test [3].

For the molecule `C=CC(=O)Nc1cc(Nc2ncc(Cl)c(Nc3cccc4c3N(S(C)(=O)=O)CCC4)n2)c(OC)cc1N(C)CCN(C)C(=O)OC(C)(C)C` [US20240343694, Example 58], the half-maximal inhibitory concentration (IC50) in test [1] was 10 nM; in test [2], below 1 nM; in test [3], 90 nM.

For the molecule `C=CC(=O)Nc1cc(N)c(OC)cc1N(C)CCN1CCCCC1` [US20240343694, Example 31], the results for the IC50 in test [1], in test [2] and in test [3] were below 1 nM, below 1 nM and 0.3 nM, respectively.

With `CS(=O)(=O)n1ccc2cccc(Nc3nc(Cl)ncc3Cl)c21` [US20240343694, Example 74], the half-maximal inhibitory concentration (IC50) in test [1], in test [2] and in test [3] was below 1 nM in each case.

For the molecule `CC(=O)Nc1c(C)cccc1Nc1nc(Cl)ncc1Cl` [US20240343694, Example 89], the IC50 in test [1] stood at 77 nM; in test [2], 20 nM; in test [3], 479 nM.

For the molecule `CS(=O)(=O)N1CCc2cccc(Nc3nc(Cl)ncc3C#N)c21` [US20240343694, Example 70], the IC50 in test [1] is 4 nM; in test [2], below 1 nM; in test [3], 33 nM.

With `C=CC(=O)Nc1cc(N)c(OC)cc1N1CCC(N2CCN(C)CC2)CC1` [US20240343694, Example 60], the concentration for half-maximal inhibition (IC50) is below 1 nM in test [1], below 1 nM in test [2] and 10 nM in test [3].

Take `CS(=O)(=O)Nc1c(Nc2nc(Cl)ncc2Cl)ccc2nccnc12` [US20240343694, Example 76]: the IC50 in test [1] was below 1 nM; in test [2], below 1 nM; in test [3], 1 nM.

In the case of `C=CC(=O)Nc1cc(N)c(OC)cc1N1CCC(N(C)C)CC1` [US20240343694, Example 59], the half-inhibitory concentration (IC50) in test [1] is below 1 nM; in test [2] it was below 1 nM; in test [3], 20 nM.

In the case of `CC(=O)Nc1c([N+](=O)[O-])ccc(C)c1C` [US20240343694, Example 83], the IC50 in test [1] was 19 nM; in test [2], 3 nM; in test [3] it was 374 nM.

Consider `CN(c1ccccc1Nc1nc(Cl)ncc1Cl)S(C)(=O)=O` [US20240343694, Example 39], for which the IC50 was below 1 nM in test [1], below 1 nM in test [2] and 8 nM in test [3].

On to `Cc1ccc(S(=O)(=O)Nc2ccccc2Nc2nc(Cl)ncc2C)cc1` [US20240343694, Example 25], for which the IC50 in test [1] was below 1 nM; in test [2], below 1 nM; in test [3], 6 nM.

Regarding `C=CC(=O)Nc1cc(N)c(OC)cc1OCCN1CCCC1` [US20240343694, Example 30], the figures for the IC50 in test [1], in test [2] and in test [3] were below 1 nM, below 1 nM and 4 nM, respectively.

For `COc1cc(N(C)CCN(C)C)c(N)cc1Nc1ncc(Cl)c(Nc2ccccc2NS(C)(=O)=O)n1` [US20240343694, Example 38], the IC50 is 2 nM in test [1], below 1 nM in test [2] and 14 nM in test [3].

Turning to `CCc1cccc(Nc2nc(Cl)ncc2Cl)c1NS(=O)(=O)CC` [US20240343694, Example 52], the results for the IC50 in test [1], in test [2] and in test [3] were below 1 nM, below 1 nM and 4 nM, respectively.

As to `C=CC(=O)Nc1cc(Nc2ncc(Cl)c(Nc3cccc4c3N(S(C)(=O)=O)CC4)n2)c(OC)cc1N(C)CCN(C)C(=O)OC(C)(C)C` [US20240343694, Example 67], the IC50 is below 1 nM in test [1], below 1 nM in test [2] and 81 nM in test [3].

For `CC(=O)N(C)c1c(C)cccc1Nc1nc(Cl)ncc1Cl` [US20240343694, Example 88], the results for the IC50 in test [1], in test [2] and in test [3] were 2 nM, below 1 nM and 14 nM, respectively.
